# Publication PMC5218480 (PLoS ONE, 2017)
# Test system: MV-4-11 cells
# Test: Gene expression microarray analysis (Affymetrix PrimeView) and GSEA
# Assay type: cell-based, human
# Parameters: RFU PODN (11730768_x_at) / Fold change /veh PODN (11730768_x_at) / RFU LINC00158 (11744669_a_at) / Fold change /veh LINC00158 (11744669_a_at) / RFU DUSP10 (11751237_a_at) / Fold change /veh DUSP10 (11751237_a_at) / RFU ID3 (11757404_x_at) / Fold change /veh ID3 (11757404_x_at) / RFU PLEKHG5 (11737974_s_at) / Fold change /veh PLEKHG5 (11737974_s_at) / RFU LRRC4B (11730491_at) / Fold change /veh LRRC4B (11730491_at) / RFU GIMAP4 (11747438_a_at) / Fold change /veh GIMAP4 (11747438_a_at) / RFU KRT8 (11758183_x_at) / Fold change /veh KRT8 (11758183_x_at) / RFU CNN1 (11734310_a_at) / Fold change /veh CNN1 (11734310_a_at) / RFU VPS37D (11726825_at) / Fold change /veh VPS37D (11726825_at) / RFU C10orf10 (11716522_x_at) / Fold change /veh C10orf10 (11716522_x_at) / RFU KIR2DL2 /// KIR2DL4 /// KIR2DL5A /// KIR2DL5B /// KIR2DS1 /// KIR2DS2 /// KIR2DS3 /// KIR2DS4 /// KIR3DL3 /// KIR3DL3 /// KIR3DS1 (11738374_at) / Fold change /veh KIR2DL2 /// KIR2DL4 /// KIR2DL5A /// KIR2DL5B /// KIR2DS1 /// KIR2DS2 /// KIR2DS3 /// KIR2DS4 /// KIR3DL3 /// KIR3DL3 /// KIR3DS1 (11738374_at) / RFU C1QL1 (11718748_at) / Fold change /veh C1QL1 (11718748_at) / RFU TMPRSS4 (11747572_a_at) / Fold change /veh TMPRSS4 (11747572_a_at) / RFU HAMP (11756126_x_at) / Fold change /veh HAMP (11756126_x_at) / RFU RNFT2 (11725882_a_at) / Fold change /veh RNFT2 (11725882_a_at) / RFU NR4A2 (11747474_a_at) / Fold change /veh NR4A2 (11747474_a_at) / RFU ABCC12 (11746883_a_at) / Fold change /veh ABCC12 (11746883_a_at) / RFU TMEM136 (11760407_x_at) / Fold change /veh TMEM136 (11760407_x_at) / RFU CLDN22 /// WWC2 (11732394_at) / Fold change /veh CLDN22 /// WWC2 (11732394_at) / RFU HLA-DPB1 (11760878_x_at) / Fold change /veh HLA-DPB1 (11760878_x_at) / RFU SPINT1 (11716480_a_at) / Fold change /veh SPINT1 (11716480_a_at) / RFU GAP43 (11754022_s_at) / Fold change /veh GAP43 (11754022_s_at) / RFU A4GNT (11735810_at) / Fold change /veh A4GNT (11735810_at) / RFU PRB3 (11715151_x_at) / Fold change /veh PRB3 (11715151_x_at) / RFU TUBB4B (11761932_at) / Fold change /veh TUBB4B (11761932_at) / RFU CAPN14 (11732068_a_at) / Fold change /veh CAPN14 (11732068_a_at) / RFU TMCC2 (11721928_a_at) / Fold change /veh TMCC2 (11721928_a_at) / RFU IRGQ (11745062_a_at) / Fold change /veh IRGQ (11745062_a_at) / RFU FAM174B (11720279_a_at) / Fold change /veh FAM174B (11720279_a_at) / RFU TMPRSS4 (11748680_a_at) / Fold change /veh TMPRSS4 (11748680_a_at) / RFU FAM212B (11763350_a_at) / Fold change /veh FAM212B (11763350_a_at) / RFU PLEKHG5 (11743358_a_at) / Fold change /veh PLEKHG5 (11743358_a_at) / RFU ZSCAN30 (11745921_a_at) / Fold change /veh ZSCAN30 (11745921_a_at) / RFU CMKLR1 (11741424_a_at) / Fold change /veh CMKLR1 (11741424_a_at) / RFU LOC101060620 /// MAPK8IP1 (11723275_at) / Fold change /veh LOC101060620 /// MAPK8IP1 (11723275_at) / RFU SPTSSB (11747773_x_at) / Fold change /veh SPTSSB (11747773_x_at) / RFU PRSS12 (11739890_at) / Fold change /veh PRSS12 (11739890_at) / RFU BIN1 (11741810_x_at) / Fold change /veh BIN1 (11741810_x_at) / RFU WNT11 (11732464_a_at) / Fold change /veh WNT11 (11732464_a_at) / RFU C10orf10 (11716521_a_at) / Fold change /veh C10orf10 (11716521_a_at) / RFU C5orf56 (11738089_at) / Fold change /veh C5orf56 (11738089_at) / RFU CYB561 (11721691_x_at) / Fold change /veh CYB561 (11721691_x_at) / RFU ANKRD19P (11752326_a_at) / Fold change /veh ANKRD19P (11752326_a_at) / RFU OR2T12 /// OR2T33 /// OR2T8 (11738714_s_at) / Fold change /veh OR2T12 /// OR2T33 /// OR2T8 (11738714_s_at) / RFU VCAN (11748164_a_at) / Fold change /veh VCAN (11748164_a_at) / RFU JSRP1 (11732532_at) / Fold change /veh JSRP1 (11732532_at) / RFU KRTAP10-11 (11738290_x_at) / Fold change /veh KRTAP10-11 (11738290_x_at) / RFU MYO3A (11730013_a_at) / Fold change /veh MYO3A (11730013_a_at) / RFU EBF3 (11725865_a_at) / Fold change /veh EBF3 (11725865_a_at) / RFU CAMK2N1 (11719241_x_at) / Fold change /veh CAMK2N1 (11719241_x_at) / RFU C5orf56 (11738088_a_at) / Fold change /veh C5orf56 (11738088_a_at) / RFU OLFML3 (11715873_a_at) / Fold change /veh OLFML3 (11715873_a_at) / RFU LOC100653217 /// NTM (11731650_a_at) / Fold change /veh LOC100653217 /// NTM (11731650_a_at) / RFU MAPK11 (11762145_a_at) / Fold change /veh MAPK11 (11762145_a_at) / RFU FIZ1 (11724087_x_at) / Fold change /veh FIZ1 (11724087_x_at) / RFU OASL (11726364_x_at) / Fold change /veh OASL (11726364_x_at) / RFU SOX15 (11748057_x_at) / Fold change /veh SOX15 (11748057_x_at) / RFU CD79A (11719716_a_at) / Fold change /veh CD79A (11719716_a_at) / RFU HIST1H1D (11736915_at) / Fold change /veh HIST1H1D (11736915_at) / RFU CASKIN2 (11723855_a_at) / Fold change /veh CASKIN2 (11723855_a_at) / RFU LOC730098 (11760151_x_at) / Fold change /veh LOC730098 (11760151_x_at) / RFU OR4N2 (11742367_at) / Fold change /veh OR4N2 (11742367_at) / RFU PRRT2 (11749266_a_at) / Fold change /veh PRRT2 (11749266_a_at) / RFU SNX32 (11753110_a_at) / Fold change /veh SNX32 (11753110_a_at) / RFU CDHR5 (11726645_a_at) / Fold change /veh CDHR5 (11726645_a_at) / RFU RCAN1 (11760418_a_at) / Fold change /veh RCAN1 (11760418_a_at) / RFU FAM167A (11723789_a_at) / Fold change /veh FAM167A (11723789_a_at) / RFU FAM26E (11764081_at) / Fold change /veh FAM26E (11764081_at) / RFU ISYNA1 (11749810_s_at) / Fold change /veh ISYNA1 (11749810_s_at) / RFU ACY1 (11761880_at) / Fold change /veh ACY1 (11761880_at) / RFU 11764098_at / Fold change /veh 11764098_at / RFU SAMD14 (11745864_x_at) / Fold change /veh SAMD14 (11745864_x_at) / RFU NPB (11741838_a_at) / Fold change /veh NPB (11741838_a_at) / RFU TMPRSS6 (11731388_a_at) / Fold change /veh TMPRSS6 (11731388_a_at) / RFU KRTAP10-2 (11738614_at) / Fold change /veh KRTAP10-2 (11738614_at) / RFU ARHGAP8 /// PRR5-ARHGAP8 (11727945_x_at) / Fold change /veh ARHGAP8 /// PRR5-ARHGAP8 (11727945_x_at) / RFU KRTAP5-7 /// NADSYN1 (11734609_at) / Fold change /veh KRTAP5-7 /// NADSYN1 (11734609_at) / RFU RASL12 (11751679_a_at) / Fold change /veh RASL12 (11751679_a_at) / RFU CDKN2B (11736163_a_at) / Fold change /veh CDKN2B (11736163_a_at) / RFU PRF1 (11729649_at) / Fold change /veh PRF1 (11729649_at) / RFU, ZNF638 /// ZNF638-IT1 / Fold change vs veh, ZNF638 /// ZNF638-IT1 / RFU, PANK3 / Fold change vs veh, PANK3 / RFU, SH3YL1 / Fold change vs veh, SH3YL1 / RFU, ZEB2 / Fold change vs veh, ZEB2 / RFU, NRIP1 / Fold change vs veh, NRIP1 / RFU, PTTG1IP / Fold change vs veh, PTTG1IP / RFU, CAPN2 / Fold change vs veh, CAPN2 / RFU, MED14 / Fold change vs veh, MED14 / RFU, SNORA58 / Fold change vs veh, SNORA58 / RFU, C1orf63 / Fold change vs veh, C1orf63 / RFU, LRRFIP1 / Fold change vs veh, LRRFIP1 / RFU, NDUFAF7 / Fold change vs veh, NDUFAF7 / RFU, SLC12A2 / Fold change vs veh, SLC12A2 / RFU, IBTK / Fold change vs veh, IBTK / RFU, ESF1 / Fold change vs veh, ESF1 / Fold change vs veh, TMEM50B / RFU, TAOK1 / Fold change vs veh, TAOK1 / RFU, ACBD3 / Fold change vs veh, ACBD3 / RFU, TMA16 / Fold change vs veh, TMA16 / RFU, RWDD3 / Fold change vs veh, RWDD3 / RFU, BCAT1 / Fold change vs veh, BCAT1 / RFU, EDEM3 / Fold change vs veh, EDEM3 / RFU, TMEM33 / Fold change vs veh, TMEM33 / RFU, WDR75 / Fold change vs veh, WDR75 / RFU, AHCTF1 / Fold change vs veh, AHCTF1 / RFU, TFRC / Fold change vs veh, TFRC / RFU, ZDHHC17 / Fold change vs veh, ZDHHC17 / RFU, NOM1 / Fold change vs veh, NOM1 / RFU, ARL8B / Fold change vs veh, ARL8B / RFU, ZBTB11 / Fold change vs veh, ZBTB11 / RFU, TAMM41 / Fold change vs veh, TAMM41 / RFU, KIAA1704 /// LOC100996395 / Fold change vs veh, KIAA1704 /// LOC100996395 / RFU, ING1 / Fold change vs veh, ING1 / RFU, TRMT61B / Fold change vs veh, TRMT61B / RFU, FUBP3 / Fold change vs veh, FUBP3 / RFU, TP53 / Fold change vs veh, TP53 / RFU, TNKS2 / Fold change vs veh, TNKS2 / RFU, ZFP14 / Fold change vs veh, ZFP14 / RFU, ACTR2 / Fold change vs veh, ACTR2 / RFU, PPP3R1 / Fold change vs veh, PPP3R1 / RFU, PIK3R1 / Fold change vs veh, PIK3R1 / RFU, HNRNPA1 / Fold change vs veh, HNRNPA1 / RFU, RNF170 / Fold change vs veh, RNF170 / RFU, ZNF28 / Fold change vs veh, ZNF28 / RFU, RNGTT / Fold change vs veh, RNGTT / RFU, OGT / Fold change vs veh, OGT / RFU, BRD1 / Fold change vs veh, BRD1 / RFU, MARS / Fold change vs veh, MARS / RFU, ZNF655 / Fold change vs veh, ZNF655 / RFU, FAHD1 / Fold change vs veh, FAHD1 / RFU, BDP1 / Fold change vs veh, BDP1 / RFU, LRRCC1 / Fold change vs veh, LRRCC1 / RFU, ARID1A / Fold change vs veh, ARID1A / RFU, ZNF146 / Fold change vs veh, ZNF146 / RFU, ZNF330 / Fold change vs veh, ZNF330 / RFU, GPN3 / Fold change vs veh, GPN3 / RFU, C9orf123 / Fold change vs veh, C9orf123 / RFU, N4BP2L2 / Fold change vs veh, N4BP2L2 / RFU, ARFIP1 / Fold change vs veh, ARFIP1 / RFU, FAM179B / Fold change vs veh, FAM179B / RFU, BCL10 / Fold change vs veh, BCL10 / RFU, UHRF1BP1L / Fold change vs veh, UHRF1BP1L / RFU, BET1 / Fold change vs veh, BET1 / RFU, CNOT2 / Fold change vs veh, CNOT2 / RFU, ZNF268 / Fold change vs veh, ZNF268 / Fold change vs veh, ZNF507 / RFU, DGCR2 / Fold change vs veh, DGCR2 / RFU, WDSUB1 / Fold change vs veh, WDSUB1 / Fold change vs veh, HSP90B1 /// MIR3652 / RFU, ADSS / Fold change vs veh, ADSS / RFU, GK / Fold change vs veh, GK / RFU, ZNF148 / Fold change vs veh, ZNF148 / RFU, TAF9 / Fold change vs veh, TAF9 / RFU, SLC1A5 / Fold change vs veh, SLC1A5 / RFU, SLMO2 / Fold change vs veh, SLMO2 / RFU, ABCC4 / Fold change vs veh, ABCC4 / RFU, LOC101060439 /// RAP1B / Fold change vs veh, LOC101060439 /// RAP1B / RFU, RFX7 / Fold change vs veh, RFX7 / RFU, GTPBP10 / Fold change vs veh, GTPBP10 / RFU, CNEP1R1 / Fold change vs veh, CNEP1R1 / RFU, BIVM-ERCC5 /// ERCC5 / Fold change vs veh, BIVM-ERCC5 /// ERCC5 / RFU, ILF3 / Fold change vs veh, ILF3 / RFU 11762660_at / Fold change /veh 11762660_at / RFU VCAN (11757783_s_at) / Fold change /veh VCAN (11757783_s_at) / RFU DDX43 (11728927_at) / Fold change /veh DDX43 (11728927_at) / RFU KRT8 (11758188_x_at) / Fold change /veh KRT8 (11758188_x_at) / RFU NKD1 (11759106_at) / Fold change /veh NKD1 (11759106_at) / RFU SRD5A1 (11742802_a_at) / Fold change /veh SRD5A1 (11742802_a_at) / RFU TPSAB1 /// TPSB2 (11721975_s_at) / Fold change /veh TPSAB1 /// TPSB2 (11721975_s_at) / RFU GSTM3 (11746129_a_at) / Fold change /veh GSTM3 (11746129_a_at) / RFU IL23R (11737362_x_at) / Fold change /veh IL23R (11737362_x_at) / RFU TMEM51 (11727254_a_at) / Fold change /veh TMEM51 (11727254_a_at) / RFU PIWIL2 (11732686_x_at) / Fold change /veh PIWIL2 (11732686_x_at) / RFU ORM1 (11744905_x_at) / Fold change /veh ORM1 (11744905_x_at) / RFU CCDC152 (11743942_at) / Fold change /veh CCDC152 (11743942_at) / RFU ECM1 (11717891_a_at) / Fold change /veh ECM1 (11717891_a_at) / RFU IL23R (11748794_a_at) / Fold change /veh IL23R (11748794_a_at) / RFU TNFAIP8L3 (11732012_x_at) / Fold change /veh TNFAIP8L3 (11732012_x_at) / RFU MBOAT4 (11741988_at) / Fold change /veh MBOAT4 (11741988_at) / RFU 11764193_at / Fold change /veh 11764193_at / RFU TMEM53 (11763286_at) / Fold change /veh TMEM53 (11763286_at) / RFU MAGEB2 (11727129_at) / Fold change /veh MAGEB2 (11727129_at) / RFU TMEM200A (11744735_a_at) / Fold change /veh TMEM200A (11744735_a_at) / RFU CCDC152 (11751479_a_at) / Fold change /veh CCDC152 (11751479_a_at) / RFU FAM211A (11726209_a_at) / Fold change /veh FAM211A (11726209_a_at) / RFU RGS16 (11746705_a_at) / Fold change /veh RGS16 (11746705_a_at) / RFU VCAN (11755009_s_at) / Fold change /veh VCAN (11755009_s_at) / RFU RHOB (11743442_s_at) / Fold change /veh RHOB (11743442_s_at) / RFU RGS16 (11720943_a_at) / Fold change /veh RGS16 (11720943_a_at) / RFU RGS16 (11720944_at) / Fold change /veh RGS16 (11720944_at) / RFU, VPS4B / Fold change vs veh, VPS4B / RFU, CREB1 / Fold change vs veh, CREB1 / RFU, DNAJC13 / Fold change vs veh, DNAJC13 / RFU, GNAQ / Fold change vs veh, GNAQ / RFU, CDK5R1 / Fold change vs veh, CDK5R1 / RFU, ZRANB3 / Fold change vs veh, ZRANB3 / RFU, CUL4A / Fold change vs veh, CUL4A / RFU, CCNY / Fold change vs veh, CCNY / RFU, UFL1 / Fold change vs veh, UFL1 / RFU, COG3 / Fold change vs veh, COG3 / RFU, DIAPH2 / Fold change vs veh, DIAPH2 / RFU, SKA2 / Fold change vs veh, SKA2 / RFU, AFF3 / Fold change vs veh, AFF3 / RFU, LMF1 / Fold change vs veh, LMF1 / RFU, IPO11 / Fold change vs veh, IPO11 / RFU, DFFB / Fold change vs veh, DFFB / RFU, FOXP1 / Fold change vs veh, FOXP1 / RFU, CARD8 / Fold change vs veh, CARD8 / RFU, STRN3 / Fold change vs veh, STRN3 / RFU, ADK / Fold change vs veh, ADK / RFU, RASSF2 / Fold change vs veh, RASSF2 / RFU, WIPF1 / Fold change vs veh, WIPF1 / RFU, LARP1B / Fold change vs veh, LARP1B / RFU, RASA1 / Fold change vs veh, RASA1 / RFU, RB1 / Fold change vs veh, RB1 / RFU, PPFIA1 / Fold change vs veh, PPFIA1 / RFU, MAT2A / Fold change vs veh, MAT2A / RFU, CCT5 / Fold change vs veh, CCT5 / RFU, WDR92 / Fold change vs veh, WDR92 / RFU, CUX1 / Fold change vs veh, CUX1 / RFU, TTC7A / Fold change vs veh, TTC7A / RFU, TMEM135 / Fold change vs veh, TMEM135 / RFU, DEPTOR / Fold change vs veh, DEPTOR / RFU, CPM / Fold change vs veh, CPM / RFU, DNAJB6 / Fold change vs veh, DNAJB6 / RFU, CACNA2D3 / Fold change vs veh, CACNA2D3 / RFU, DTX4 / Fold change vs veh, DTX4 / RFU, TFCP2 / Fold change vs veh, TFCP2 / RFU, GMCL1 /// GMCL1P1 / Fold change vs veh, GMCL1 /// GMCL1P1 / RFU, AEBP2 / Fold change vs veh, AEBP2 / RFU, SNHG1 /// SNORD22 /// SNORD25 /// SNORD26 /// SNORD27 /// SNORD28 /// SNORD29 /// SNORD31 / Fold change vs veh, SNHG1 /// SNORD22 /// SNORD25 /// SNORD26 /// SNORD27 /// SNORD28 /// SNORD29 /// SNORD31 / Fold change (Aza/veh), C12orf56 (ProbeSet 11735607_a_at) / Fold change (ACY-1035/veh), C12orf56 (ProbeSet 11735607_a_at) / Fold change (Aza/veh), FGFR1OP (ProbeSet 11751329_s_at) / Fold change (ACY-1035/veh), FGFR1OP (ProbeSet 11751329_s_at) / Fold change (Aza/veh), VPS36 (ProbeSet 11739960_a_at) / Fold change (ACY-1035/veh), VPS36 (ProbeSet 11739960_a_at) / RFU SYPL1 (11715823_x_at) / Fold change /veh SYPL1 (11715823_x_at) / RFU IGFBP7 (11715501_s_at) / Fold change /veh IGFBP7 (11715501_s_at) / RFU REEP3 (11722064_at) / Fold change /veh REEP3 (11722064_at) / RFU IGLL1 (11728026_x_at) / Fold change /veh IGLL1 (11728026_x_at): dose or concentration left out as unconfirmed
# Conditions: ProbeSet 11725787_a_at; LIST B
smiles,measurement,value
Nc1ncn([C@@H]2O[C@H](CO)[C@@H](O)[C@H]2O)c(=O)n1 [azacitidine],"RFU, TMA16",152.00 RFU
